From PubChem BioAssay AID1963842 (Molecular Pharmacology Branch, DTP, NCI, 2024)

Tested on: 677734-321-R-J1-PDC complex spheroid viability
Assay: Anticancer human tumor 677734-321-R-J1-PDC patient-derived soft tissue sarcoma cell line growth inhibition [POLQ]
Conditions: for IC50: curve of first compound; for viability, T/C: stronger effect = lower value
Procedure, shortened: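 Patient-derived tumour cells were co-cultured with HUVEC and mesenchymal stem cells as multicellular spheroids at 37 °C. They were treated with POLQ inhibitors (novobiocin, ART-558, RP6685) alone or combined with other agents. Top concentrations were at or near clinical Cmax (otherwise 10 microM; SN-38 at 1 microM), decreasing in half-log steps.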

[1] = second compound 0.0316 µM, first compound 0.00316 µM
[2] = second compound 0.0316 µM, first compound 0.01 µM
[3] = second compound 0.0316 µM, first compound 0.0316 µM
[4] = second compound 0.0316 µM, first compound 0.1 µM
[5] = second compound 0.0316 µM, first compound 0.316 µM
[6] = second compound 0.0316 µM, first compound 1 µM
[7] = second compound 0.1 µM, first compound 0.00316 µM
[8] = second compound 0.1 µM, first compound 0.01 µM
[9] = second compound 0.1 µM, first compound 0.0316 µM
[10] = second compound 0.1 µM, first compound 0.1 µM
[11] = second compound 0.1 µM, first compound 0.316 µM
[12] = second compound 0.1 µM, first compound 1 µM
[13] = second compound 0.316 µM, first compound 0.00316 µM
[14] = second compound 0.316 µM, first compound 0.01 µM
[15] = second compound 0.316 µM, first compound 0.0316 µM
[16] = second compound 0.316 µM, first compound 0.1 µM
[17] = second compound 0.316 µM, first compound 0.316 µM
[18] = second compound 0.316 µM, first compound 1 µM
[19] = second compound 1 µM, first compound 0.00316 µM
[20] = second compound 1 µM, first compound 0.01 µM
[21] = second compound 1 µM, first compound 0.0316 µM
[22] = second compound 1 µM, first compound 0.1 µM
[23] = second compound 1 µM, first compound 0.316 µM
[24] = second compound 1 µM, first compound 1 µM
[25] = second compound 3.16 µM, first compound 0.00316 µM
[26] = second compound 3.16 µM, first compound 0.01 µM
[27] = second compound 3.16 µM, first compound 0.0316 µM
[28] = second compound 3.16 µM, first compound 0.1 µM
[29] = second compound 3.16 µM, first compound 0.316 µM
[30] = second compound 3.16 µM, first compound 1 µM
[31] = second compound 10 µM, first compound 0.00316 µM
[32] = second compound 10 µM, first compound 0.01 µM
[33] = second compound 10 µM, first compound 0.0316 µM
[34] = second compound 10 µM, first compound 0.1 µM
[35] = second compound 10 µM, first compound 0.316 µM
[36] = second compound 10 µM, first compound 1 µM
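Also: spheroids exposed to compounds for one week.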
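For viability, T/C in this document: 100% = vehicle DMSO treated spheroids.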

C=CCn1c(=O)c2cnc(Nc3ccc(N4CCN(C)CC4)cc3)nc2n1-c1cccc(C(C)(C)O)n1 + Nc1ccc(C#CCN(C(=O)Cc2ncc(C(F)(F)F)cc2C(F)(F)F)c2ccc(F)cc2)nn1
IC50 (second compound 0.0316 µM): 727 nM
IC50 (second compound 0.1 µM): 682 nM
IC50 (second compound 0.316 µM): 664 nM
IC50 (second compound 1 µM): 644 nM
IC50 (second compound 3.16 µM): 496 nM
IC50 (second compound 10 µM): 805 nM
viability, T/C [1]: 114%
viability, T/C [2]: 107%
viability, T/C [3]: 102%
viability, T/C [4]: 102%
viability, T/C [5]: 84.1%
viability, T/C [6]: 36.7%
viability, T/C [7]: 107%
viability, T/C [8]: 111%
viability, T/C [9]: 122%
viability, T/C [10]: 97.2%
viability, T/C [11]: 80.8%
viability, T/C [12]: 35.1%
viability, T/C [13]: 119%
viability, T/C [14]: 102%
viability, T/C [15]: 110%
viability, T/C [16]: 104%
viability, T/C [17]: 81.1%
viability, T/C [18]: 32.5%
viability, T/C [19]: 106%
viability, T/C [20]: 102%
viability, T/C [21]: 112%
viability, T/C [22]: 93.2%
viability, T/C [23]: 85.4%
viability, T/C [24]: 29.3%
viability, T/C [25]: 114%
viability, T/C [26]: 96.3%
viability, T/C [27]: 103%
viability, T/C [28]: 104%
viability, T/C [29]: 59%
viability, T/C [30]: 35.9%
viability, T/C [31]: 116%
viability, T/C [32]: 113%
viability, T/C [33]: 108%
viability, T/C [34]: 97.1%
viability, T/C [35]: 74.6%
viability, T/C [36]: 44.2%

C=CCn1c(=O)c2cnc(Nc3ccc(N4CCN(C)CC4)cc3)nc2n1-c1cccc(C(C)(C)O)n1 + Cc1cccc(N(C)C(=O)C2C(O)CCN2c2nc(C)cc(C(F)(F)F)c2C#N)c1
IC50 (second compound 0.0316 µM): 627 nM
IC50 (second compound 0.1 µM): 478 nM
IC50 (second compound 0.316 µM): 661 nM
IC50 (second compound 1 µM): 401 nM
IC50 (second compound 3.16 µM): 537 nM
IC50 (second compound 10 µM): 493 nM
viability, T/C [1]: 102%
viability, T/C [2]: 102%
viability, T/C [3]: 102%
viability, T/C [4]: 90.6%
viability, T/C [5]: 81%
viability, T/C [6]: 29.7%
viability, T/C [7]: 88.6%
viability, T/C [8]: 92.4%
viability, T/C [9]: 106%
viability, T/C [10]: 78.4%
viability, T/C [11]: 67.4%
viability, T/C [12]: 21.7%
viability, T/C [13]: 96.7%
viability, T/C [14]: 95.3%
viability, T/C [15]: 90.9%
viability, T/C [16]: 85.6%
viability, T/C [17]: 79%
viability, T/C [18]: 34.4%
viability, T/C [19]: 117%
viability, T/C [20]: 93.7%
viability, T/C [21]: 98.9%
viability, T/C [22]: 85%
viability, T/C [23]: 51.4%
viability, T/C [24]: 30.2%
viability, T/C [25]: 107%
viability, T/C [26]: 87.7%
viability, T/C [27]: 76.3%
viability, T/C [28]: 87.8%
viability, T/C [29]: 66.8%
viability, T/C [30]: 31.9%
viability, T/C [31]: 89.6%
viability, T/C [32]: 82.6%
viability, T/C [33]: 95.3%
viability, T/C [34]: 82.3%
viability, T/C [35]: 70%
viability, T/C [36]: 18.6%
